From PubChem BioAssay (NCI)
Values joined by “and” are separate entries in the source; they are usually repeats but may differ in a detail not shown here. Identical values can stand only once.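 In this assay, cells in 96-well plates receive the compound at five concentrations for 48 hours. Endpoints are linearly interpolated between the surrounding concentrations. At the TGI there is no net growth.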 Peptide text beside a SMILES is read from it. * marks the point of attachment. X34 = O=C(c1ccc(-c2ccc(Cl)cc2Cl)o1)*

Experiments:
Assay in all cases: inhibition of tumour cell growth, NCI panel, 48 h
[1] = test system: HCC-2998 colon
[2] = test system: HCT-15 colon
[3] = test system: K-562 leukemia
[4] = test system: NCI-H226 lung
[5] = test system: NCI-H522 lung
[6] = test system: OVCAR-3 ovarian
[7] = test system: OVCAR-5 ovarian
[8] = test system: RPMI-8226 leukemia
[9] = test system: RXF 393 renal
[10] = test system: SK-MEL-28 melanoma
[11] = test system: SK-MEL-5 melanoma
[12] = test system: SN12C renal
[13] = test system: SNB-19 CNS
[14] = test system: UACC-257 melanoma
[15] = test system: UACC-62 melanoma
[16] = test system: M14 melanoma
[17] = test system: MDA-MB-435
[18] = test system: PC-3 prostate
[19] = test system: TK-10 renal
[20] = test system: ACHN renal

SMILES	TGI [1]	TGI [2]	TGI [3] [µM]	TGI [4] [µM]	TGI [5] [µM]	TGI [6]	TGI [7]	TGI [8] [µM]	TGI [9] [µM]	TGI [10]	TGI [11]	TGI [12] [µM]	TGI [13] [µM]	TGI [14]	TGI [15]	TGI [16]	TGI [17] [µM]	TGI [18] [µM]	TGI [19] [µM]	TGI [20] [µM]
O=c1oc2cc(O)ccc2c2oc3cc(O)ccc3c12	> 118 µM	> 125 µM	> 125	> 125	31.9	114 µM	> 125 µM	> 125	124	> 125 µM	69.9 µM	> 88.7	91.7	124 µM	> 125 µM	–	–	–	–	–
CC(ON1[C@](C)(c2ccccc2)CC[C@@]1(C)c1ccccc1)c1ccccc1 (some centres undefined)	52.6 µM	> 100 µM	> 100	> 100	50.3	> 100 µM	> 100 µM	58.2	46	> 100 µM	> 100 µM	> 100	93	> 100 µM	–	> 100 µM	> 100	> 100	> 100	–
O=C1NC(=NCc2ccc(F)cc2)N/C1=C\c1ccccc1Cl	> 100 µM	71.2 µM	> 100	69.3	30.4	32.6 µM	41 µM	–	48.2	67.3 µM	33.6 µM	29.6	39.7	> 100 µM	29.8 µM	31.6 µM	43.9	38.8	67.4	49.1
O=C1CCCCN1	> 1120 µM	> 1120 µM	> 1120	> 1120	> 1120	> 1120 µM	> 1120 µM	> 1120	> 1120	> 1120 µM	> 1120 µM	> 1120	> 1120	> 1120 µM	> 1120 µM	–	–	–	–	–
CCCCC(=O)c1c(O)ccc2c(C)cc(=O)oc12	> 100 µM	> 100 µM	> 100	> 100	> 100	> 100 µM	> 100 µM	> 100	> 100	> 100 µM	> 100 µM	> 100	> 100	> 100 µM	> 100 µM	> 100 µM	> 100	> 100	> 100	> 100
O=C1CCC2(CC1CCS(=O)c1ccccc1)OCCO2 (centres undefined)	> 100 µM	> 100 µM	> 100	> 100	> 100	> 100 µM	> 100 µM	> 100	> 100	> 100 µM	> 100 µM	–	> 100	> 100 µM	> 100 µM	> 100 µM	> 100	> 100	> 100	> 100
CC(C)CNCCc1ccccn1	> 100 µM	> 100 µM	–	> 100	> 100	> 100 µM	> 100 µM	–	> 100	> 100 µM	> 100 µM	> 100	> 100	> 100 µM	> 100 µM	> 100 µM	> 100	> 100	> 100	> 100
CC1(O)C2(c3ccccc3)CCC[N+]1(C)CC2 (centres undefined)	> 100 µM	> 100 µM	> 100	> 100	–	> 100 µM	> 100 µM	> 100	> 100	> 100 µM	> 100 µM	> 100	> 100	> 100 µM	> 100 µM	> 100 µM	> 100	> 100	> 100	–
COC(=O)/C=C\C(C#N)(C#N)N=Cc1cccs1	33.8 µM	5.69 µM	> 100	20.7	2.24	25.1 µM	22.1 µM	7.36	5.51	26 µM	11.2 µM	38.7	> 56.5	27.6 µM	25.4 µM	15.4 µM	18	26	3.43	4.12
C=CCn1c(=O)c(Br)nn(CCOCP(=O)(OCC)OCC)c1=O	> 100 µM	> 100 µM	> 100	> 100	> 100	> 100 µM	> 100 µM	> 100	> 100	> 100 µM	> 100 µM	> 100	> 100	> 100 µM	–	> 100 µM	> 100	> 100	–	> 100
CC[C@@]1(O)C[C@H](OC2CC(N(C)C)C(OC3CC(O)C(OC4CCC(=O)C(C)O4)C(C)O3)C(C)O2)c2c(cc3c(c2O)C(=O)c2c(O)cccc2C3=O)C1C(=O)OC (some centres undefined)	0.598 µM and 1.88 µM	1.2 µM and 3.13 µM	–	–	–	0.23 µM and 1.96 µM	3.11 µM and 1.56 µM	–	0.157	0.215 µM and 0.806 µM	0.189 µM and 0.478 µM	–	–	0.202 µM and 0.993 µM	0.26 µM and 0.527 µM	0.237 µM and 0.769 µM	–	1.47	–	2.15
Cc1cn(C2CC(N=[N+]=[N-])C(CO)O2)c(=O)n(CCCCBr)c1=O (centres undefined)	> 100 µM	> 100 µM	> 100	> 100	> 100	> 100 µM	> 100 µM	> 100	> 100	> 100 µM	–	> 100	> 100	> 100 µM	> 100 µM	> 100 µM	> 100	> 100	> 100	> 100
COC(=O)C(CC(C)C)NC(=O)C(Cc1ccccc1)NC(=O)C1CCCN1C(=O)C(CO)NC(=O)c1ccc(-c2ccc(Cl)cc2Cl)o1 (centres undefined) (X34-SPFL-OMe; configuration not given here)	27.4 µM	72.6 µM	89.2	44.9	> 100	–	50.4 µM	44.2	44.7	> 100 µM	35.2 µM	89.9	> 100	57.8 µM	> 100 µM	49 µM	90.3	> 100	67.5	> 100
OCC(O)COCn1cc(Cn2ncc3c(NCc4ccccc4)ncnc32)nn1 (centres undefined)	> 100 µM	> 100 µM	–	> 100	33.4	> 100 µM	> 100 µM	> 100	–	> 100 µM	> 100 µM	> 100	> 100	> 100 µM	> 100 µM	> 100 µM	> 100	> 100	> 100	> 100
CC(=O)OCCCCN1C(=O)CSc2ccccc21	–	> 100 µM	–	–	> 100	> 100 µM	> 100 µM	> 100	> 100	> 100 µM	> 100 µM	> 100	> 100	> 100 µM	> 100 µM	–	> 100	> 100	> 100	> 100
CCOc1cc(C2SCC(=O)N2c2ccc3c(c2)Oc2c(Cl)c4c(c(Cl)c2=N3)Oc2cc(N3C(=O)CSC3c3ccc(O)c(OCC)c3)ccc2N=4)ccc1O (centres undefined)	> 100 µM	> 100 µM	> 100	66.2	> 100	> 100 µM	> 100 µM	> 100	58.9	> 100 µM	> 100 µM	–	–	> 100 µM	–	63.8 µM	> 100	> 100	> 100	73.4
C=CCc1cccc2cc(C(=O)Nc3ccc(C)cc3)c(=N)oc12	> 100 µM	> 100 µM	> 100	> 100	> 100	> 100 µM	> 100 µM	> 100	> 100	> 100 µM	> 100 µM	> 100	> 100	> 100 µM	> 100 µM	> 100 µM	> 100	> 100	–	> 100
O=C1/C(=C/C=C/c2ccccc2)N=C(c2ccccc2)N1c1ccc(S(=O)(=O)Nc2nccs2)cc1	–	> 100 µM	> 100	55.5	36.6	48.2 µM	> 100 µM	68.2	30.1	–	54 µM	> 100	> 100	> 100 µM	61.7 µM	> 100 µM	> 100	> 100	> 100	34.5
CC(=O)OCC1=CC2OC(=O)C3=COC(OC4OC(CO)C(O)C(O)C4O)C1C32 (centres undefined)	> 100 µM	> 100 µM	–	> 100	> 100	> 100 µM	> 100 µM	> 100	–	> 100 µM	> 100 µM	> 100	> 100	> 100 µM	> 100 µM	> 100 µM	> 100	> 100	> 100	> 100
C/C=C\C(CC(=O)NCCC1CN(C(=O)OCc2ccccc2)c2ccccc21)CC(=O)OC (centres undefined)	> 100 µM	> 100 µM	> 100	–	> 100	> 100 µM	> 100 µM	> 100	> 100	> 100 µM	> 100 µM	–	> 100	> 100 µM	> 100 µM	> 100 µM	> 100	> 100	> 100	> 100
N#Cc1ccc([N+](=O)[O-])cc1NC(N)=S	> 100 µM	> 100 µM	–	–	> 100	> 100 µM	> 100 µM	> 100	–	> 100 µM	> 100 µM	> 100	> 100	–	–	> 100 µM	–	–	–	–
CCOC(=O)[C@@]1(C(C)=O)CC(C)=C(C)C[S@]1=O	> 100 µM	> 100 µM	> 100	> 100	> 100	> 100 µM	> 100 µM	> 100	> 100	> 100 µM	–	> 100	> 100	> 100 µM	> 100 µM	> 100 µM	> 100	> 100	> 100	> 100
CC(C)C1=CC2=CC[C@@H]3[C@](C)(CCC[C@@]3(C)C(=O)O)[C@H]2CC1	> 100 µM	> 87 µM	> 100	> 100	> 100	72.4 µM	> 100 µM	> 79.7	97.4	> 100 µM	> 94.2 µM	> 100	> 100	> 100 µM	68.3 µM	> 100 µM	–	–	> 100	> 100
CN(CCNC(=O)c1nn(-c2ccc(Cl)cc2Cl)c2c1Cc1ccccc1-2)CCNC(=O)c1nn(-c2ccc(Cl)cc2Cl)c2c1Cc1ccccc1-2	3.26 µM	5.97 µM	> 26.3	–	3.71	17.4 µM	> 87.5 µM	4.5	4.54	4.97 µM	3.48 µM	20.4	> 100	4.72 µM	3.48 µM	3.46 µM	2.43	> 100	24.6	29.7
CC(=O)OC12CC[N+]3(C)CCCCC3C1=Nc1ccccc12 (centres undefined)	–	> 100 µM	> 100	> 100	> 100	> 100 µM	> 100 µM	> 100	> 100	> 100 µM	> 100 µM	> 100	> 100	> 100 µM	> 100 µM	> 100 µM	> 100	> 100	> 100	> 100
O=C1NC(=O)C(C(c2ccc([N+](=O)[O-])cc2)C2C(=O)NC(=O)NC2=O)C(=O)N1	–	> 100 µM	> 100	> 100	> 100	> 100 µM	> 100 µM	> 100	> 100	> 100 µM	> 100 µM	> 100	> 100	> 100 µM	> 100 µM	> 100 µM	> 100	> 100	> 100	> 100
